pIC50: −log10 of the molar value. Read-outs that look alike come from different tables or passages of the source.

The source of these data is patent EP0934303B1, “COMPOUNDS USEFUL FOR INHIBITION OF FARNESYL PROTEIN TRANSFERASE” (SCHERING CORPORATION, priority 1996, dated 1998).

Test [1] deals with farnesyl protein transferase (Homo sapiens, UniProt P49354+P49356). The experiment in a line: FPT IC50, inhibition of farnesyl protein transferase, in vitro enzyme assay (procedure of WO 95/10516). It counts as biochemical. The note with it: one range stated for the whole list of compounds. The method, then:
(§1) FPT IC50 (inhibition of farnesyl protein transferase, in vitro enzyme assay), GGPT IC50 (inhibition of geranylgeranyl protein transferase, in vitro enzyme assay) and COS Cell IC50 (Cell-Based Assay) were determined following the assay procedures described in WO 95/10516, published April 20, 1995. Cell Mat Assay, and anti-tumor activity (in vivo anti-tumor studies) could be determined by the assay procedures described in WO 95/10516. The disclosure of WO 95/10516 is incorporated herein by reference thereto.

For the next test, the system named is Human tumor cells. The test is described as follows: Soft Agar Assay (anchorage-independent growth, colony count after MTT staining). The conditions noted are these: one range stated for the whole list of compounds. In kind it is cell-based. The protocol:
Anchorage-independent growth is a characteristic of tumorigenic cell lines. Human tumor cells are suspended in growth medium containing 0.3% agarose and an indicated concentration of a farnesyl transferase inhibitor. The solution is overlayed onto growth medium solidified with 0.6% agarose containing the same concentration of farnesyl transferase inhibitor as the top layer. After the top layer is solidified, plates are incubated for 10-16 days at 37°C under 5% CO2 to allow colony outgrowth. After incubation, the colonies are stained by overlaying the agar with a solution of MTT (3-[4,5-dimethylthiazol-2-yl]-2,5-diphenyltetrazolium bromide, Thiazolyl blue) (1 mg/mL in PBS). Colonies can be counted and the IC50's can be determined.

The next test has as its system COS Cell. The experiment in a line: COS Cell IC50 (Cell-Based Assay, procedure of WO 95/10516). The conditions noted are these: one range stated for the whole list of compounds. The protocol:
as §1

Test [2] deals with geranylgeranyl protein transferase (Rattus norvegicus, UniProt P53610+Q04631). The experiment in a line: GGPT IC50, inhibition of geranylgeranyl protein transferase, in vitro enzyme assay (procedure of WO 95/10516). In kind it is biochemical. The protocol:
as §1

The mark [3] stands for this setting: H-ras, read-out: FPT IC50 (H-ras).
The mark [4] stands for this setting: K-ras, read-out: FPT IC50 (K-ras).

Chain of farnesyl protein transferase (P49356 whole entry, one chain of several): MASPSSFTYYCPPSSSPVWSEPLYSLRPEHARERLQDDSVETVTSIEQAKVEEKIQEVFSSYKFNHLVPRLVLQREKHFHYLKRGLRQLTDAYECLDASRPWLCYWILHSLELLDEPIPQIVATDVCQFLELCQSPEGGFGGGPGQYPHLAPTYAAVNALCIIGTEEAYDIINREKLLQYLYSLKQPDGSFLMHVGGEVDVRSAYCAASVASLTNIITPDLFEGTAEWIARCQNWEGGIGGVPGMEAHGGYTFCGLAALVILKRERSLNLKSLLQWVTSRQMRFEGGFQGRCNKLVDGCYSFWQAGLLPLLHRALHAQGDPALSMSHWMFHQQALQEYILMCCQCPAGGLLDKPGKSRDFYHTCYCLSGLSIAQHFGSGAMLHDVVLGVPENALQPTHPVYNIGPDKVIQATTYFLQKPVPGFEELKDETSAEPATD

As to `N=C(Oc1ccccc1)N1CCC(CC(=O)N2CCC(C3c4ccc(Cl)c(Br)c4CCc4cc(Br)cnc43)CC2)CC1` (racemic) [Compound 26.0], in test [1] (setting [3]), the pIC50 was at most 9.10. Consider `N#CN=C(Oc1ccccc1)N1CCC(CC(=O)N2CCN(C3c4ccc(Cl)cc4CCc4cc(Br)cnc43)CC2)CC1` (stereo not drawn) [Compound 2.0, PHENYL 4-[2-[4-(3-BROMO-8-CHLORO-6,11-DIHYDRO-5H-BENZO[5,6]CYCLOHEPTA[1,2-b]PYRIDIN-11-YL)-1-PIPERAZINYL]-2-OXOETHYL]-N-CYANO-1-PIPERIDINE- CARBOXIMIDATE], for which the pIC50 in test [1] (setting [3]) was at most 9.10.

Consider `N#CNC(=N)N1CCC(CC(=O)N2CCN(C3c4ccc(Cl)cc4CCc4cc(Br)cnc43)CC2)CC1` (stereo not drawn) [Compound 3.0, 4-[2-[4-(3-BROMO-8-CHLORO-6,11-DIHYDRO-5H-BENZO[5,6]CYCLOHEPTA[1,2-b]PYRIDIN-11-YL)-1-PIPERAZINYL]-2-OXOETHYL]-N-CYANO-1-PIPERIDINE-CARBOXIMIDAMIDE], for which the pIC50 in test [1] (setting [3]) was at most 9.10.

For `N=C(Oc1ccccc1)N1CCC(CC(=O)N2CCN(C3c4ccc(Cl)cc4CCc4cc(Br)cnc43)CC2)CC1` (stereo not drawn) [Compound 4.0, PHENYL 4-[2-[4-(3-BROMO-8-CHLORO-6,11-DIHYDRO-5H-BENZO[5,6]CYCLOHEPTA[1,2-b]PYRIDIN-11-YL)-1-PIPERAZINYL]-2-OXOETHYL]-1-PIPERIDINECARBOXIMIDATE], in test [1] (setting [3]), the pIC50 was at most 9.10.

As to `N#CN1CCC(CC(=O)N2CCN(C3c4ccc(Cl)cc4CCc4cc(Br)cnc43)CC2)CC1` (stereo not drawn) [Compound 5.0], the negative-log IC50 (pIC50) in test [1] (setting [3]) was at most 9.10. Turning to `N=C(NS(N)(=O)=O)N1CCC(CC(=O)N2CCN(C3c4ccc(Cl)cc4CCc4cc(Br)cnc43)CC2)CC1` (stereo not drawn) [Compound 7.0, 4-[2-[4-(3-BROMO-8-CHLORO-6,11-DIHYDRO-5H-BENZO[5,6]CYCLOHEPTA[1,2-b]PYRIDIN-11-YL)-1-PIPERAZINYL]-2-OXOETHYL]-N-SULFAMOYL-1-PIPERIDINE-CARBOXIMIDAMIDE], in test [1] (setting [3]), the pIC50 was at most 9.10. Consider `NC(=NO)N1CCC(CC(=O)N2CCN(C3c4ccc(Cl)cc4CCc4cc(Br)cnc43)CC2)CC1` (stereo not drawn) [Compound 12.0, 4-[2-[4-(3-BROMO-8-CHLORO-6,11-DIHYDRO-5H-BENZO[5,6]CYCLOHEPTA[1,2-b]PYRIDIN-11-YL)-1-PIPERAZINYL]-2-OXOETHYL]-N-HYDROXY-1-PIPERIDINECARBOXIMIDATE], for which the pIC50 in test [1] (setting [3]) is at most 9.10. Still for that read-out and setting: in the case of `CON=C(N)N1CCC(CC(=O)N2CCN(C3c4ccc(Cl)cc4CCc4cc(Br)cnc43)CC2)CC1` (stereo not drawn) [Compound 13.0, 4-[2-[4-(3-BROMO-8-CHLORO-6,11-DIHYDRO-5H-BENZO[5,6]CYCLOHEPTA[1,2-b]PYRIDIN-11-YL)-1-PIPERAZINYL]-2-OXOETHYL]-N-METHOXY-1-PIPERIDINE-CARBOXIMIDATE] it was at most 9.10.

As to `NC(=O)NC(=O)N=C(Oc1ccccc1)N1CCC(CC(=O)N2CCN(C3c4ccc(Cl)cc4CCc4cc(Br)cnc43)CC2)CC1` (stereo not drawn) [Compound 16.1, PHENYL N-[[(AMINOCARBONYL)AMINO]CARBONYL]-4-[2-[4-(3-BROMO-8-CHLORO-6,11-DIHYDRO-5H-BENZO[5,6]CYCLOHEPTA-[1,2-b]PYRIDIN-11-YL)-1-PIPERAZINYL]-2-OXOETHYL]-1-PIPERIDINECARBOXIMIDATE], the pIC50 in test [1] (setting [3]) is at most 9.10.

Regarding `N=C(NC(=O)NC(N)=O)N1CCC(CC(=O)N2CCN(C3c4ccc(Cl)cc4CCc4cc(Br)cnc43)CC2)CC1` (stereo not drawn) [Compound 17.1, N-[[(AMINOCARBONYL)AMINO]CARBONYL]-4-[2-[4-(3-BROMO-8-CHLORO-6,11-DIHYDRO-5H-BENZO[5,6]CYCLOHEPTA[1,2-b]-PYRIDIN-11-YL)-1-PIPERAZINYL]-2-OXOETHYL]-1-PIPERIDINECARBOXIMIDAMIDE], in test [1] (setting [3]), the pIC50 is at most 9.10. On to `O=C(O)c1cncc(C(=O)N2CCC(CC(=O)N3CCC([C@H]4c5ncc(Br)cc5CCc5cc(Cl)cc(Br)c54)CC3)CC2)c1` [Compound 25.0-B], for which the pIC50 with Human tumor cells was at most 7.05; with COS Cell, at most 8.15. The like results for `Cc1noc(C)c1C(=O)N1CCC(CC(=O)N2CCC([C@H]3c4ncc(Br)cc4CCc4cc(Cl)cc(Br)c43)CC2)CC1` [Compound 27.0-B] were, in that order, at most 7.05 and at most 8.15. As to `N=C(Oc1ccccc1)N1CCC(CC(=O)N2CCC([C@H]3c4ncc(Br)cc4CCc4cc(Cl)cc(Br)c43)CC2)CC1` [Compound 27.0], the pIC50 in the test on Human tumor cells is at most 7.05; in test [1] (setting [3]) it was at most 9.10; in test [1] (setting [4]), 6.11 to 7.80; in the test on COS Cell, at most 7.92.

As to `O=C1N[C@H](C(=O)N2CCC(CC(=O)N3CCC([C@H]4c5ncc(Br)cc5CCc5cc(Cl)cc(Br)c54)CC3)CC2)CO1` [Compound 28.0-B], the pIC50 in the test on Human tumor cells was at most 7.05; in the test on COS Cell it was at most 8.15. In the case of `N#CN1CCC(CC(=O)N2CCC(C3c4ccc(Cl)c(Br)c4CCc4cc(Br)cnc43)CC2)CC1` (stereo not drawn) [Compound 28.0], the pIC50 is at most 9.10 in test [1] (setting [3]), 6.11 to 7.80 in test [1] (setting [4]), at most 7.92 in the test with COS Cell and under 5.02 in test [2]. Take `NC(=O)c1cncc(C(=O)N2CCC(CC(=O)N3CCC([C@H]4c5ncc(Br)cc5CCc5cc(Cl)cc(Br)c54)CC3)CC2)c1` [Compound 29.0-B]: the pIC50 in the test on Human tumor cells is at most 7.05; with COS Cell it was at most 8.15.

`N#CN1CCC(CC(=O)N2CCC([C@H]3c4ncc(Br)cc4CCc4cc(Cl)cc(Br)c43)CC2)CC1` [Compound 29.0]: the pIC50 is at most 9.10 in test [1] (setting [3]) and at most 7.92 in the test with COS Cell. Turning to `N=C(N)N1CCC(CC(=O)N2CCC(C3c4ccc(Cl)c(Br)c4CCc4cc(Br)cnc43)CC2)CC1` (stereo not drawn) [Compound 30.0], the values for the pIC50 (in test [1] (setting [3]); with COS Cell) were at most 9.10 and at most 7.92, respectively. Take `O=C(CC1CCN(C(=O)c2cn[nH]c2)CC1)N1CCC([C@H]2c3ncc(Br)cc3CCc3cc(Cl)cc(Br)c32)CC1` [Compound 31.0-B]: the pIC50 is at most 7.05 in the test with Human tumor cells and at most 8.15 in the test with COS Cell.

For `N=C(NCc1cccnc1)N1CCC(CC(=O)N2CCC(C3c4ccc(Cl)c(Br)c4CCc4cc(Br)cnc43)CC2)CC1` (stereo not drawn) [Compound 31.0], the pIC50 was at most 9.10 in test [1] (setting [3]), 6.11 to 7.80 in test [1] (setting [4]), at most 7.92 in the test on COS Cell and under 5.12 in test [2]. Consider `CC(=O)N1CCC(CC(=O)N2CCC([C@H]3c4ncc(Br)cc4CCc4cc(Cl)cc(Br)c43)CC2)CC1` [Compound 36.0-B], for which the pIC50 in the test on Human tumor cells is at most 7.05; in the test on COS Cell, at most 8.15.

As to `CCn1cccc1C(=O)N1CCC(CC(=O)N2CCC([C@H]3c4ncc(Br)cc4CCc4cc(Cl)cc(Br)c43)CC2)CC1` [Compound 40.0-B], the pIC50 with Human tumor cells was at most 7.05; in test [1] (setting [3]), at most 9.10; in the test on COS Cell, at most 8.15. For the molecule `O=C(CC1CCN(C(=O)c2cc[n+]([O-])cc2)CC1)N1CCC([C@H]2c3ncc(Br)cc3CCc3cc(Cl)cc(Br)c32)CC1` [Compound 45.0-B], the negative logarithm of the IC50 (pIC50) in the test on Human tumor cells was at most 7.05; in the test on COS Cell, at most 8.15. The matching figures for `O=C(CC1CCN(C(=O)c2ccc[n+]([O-])c2)CC1)N1CCC([C@H]2c3ncc(Br)cc3CCc3cc(Cl)cc(Br)c32)CC1` [Compound 46.0-B]: at most 7.05 and at most 8.15. In the case of `O=C(CC1CCN(C(=O)c2ccc(O)nc2)CC1)N1CCC([C@H]2c3ncc(Br)cc3CCc3cc(Cl)cc(Br)c32)CC1` [Compound 47.0-B], the results for the pIC50 with Human tumor cells and in the test with COS Cell were at most 7.05 and at most 8.15, respectively. The matching figures for `O=C(CC1CCN(C(=O)c2cccnc2O)CC1)N1CCC([C@H]2c3ncc(Br)cc3CCc3cc(Cl)cc(Br)c32)CC1` [Compound 48.0-B]: at most 7.05 and at most 8.15. In the case of `CC(=O)OC1CCC(C(=O)N2CCC(CC(=O)N3CCC(C4c5ncc(Br)cc5CCc5cc(Cl)cc(Br)c54)CC3)CC2)CC1` (stereo not drawn) [Compound 66.0-B], the pIC50 in the test with Human tumor cells is at most 7.05; in the test with COS Cell, at most 8.15.

In the case of `O=C1C[C@@H](C(=O)N2CCC(CC(=O)N3CCC([C@H]4c5ncc(Br)cc5CCc5cc(Cl)cc(Br)c54)CC3)CC2)NC(=O)N1` [Compound 78.0-B], the pIC50 is at most 7.05 with Human tumor cells and at most 8.15 with COS Cell.

`O=C(CC1CCN(C(=O)[C@@H]2CSCN2)CC1)N1CCC([C@H]2c3ncc(Br)cc3CCc3cc(Cl)cc(Br)c32)CC1` [Compound 80.0-B] had a pIC50 with Human tumor cells of at most 7.05.

As to `O=C(CC1CCN(C(=O)c2ncccc2O)CC1)N1CCC([C@H]2c3ncc(Br)cc3CCc3cc(Cl)cc(Br)c32)CC1` [Compound 83.0-B], the pIC50 is at most 7.05 in the test with Human tumor cells and at most 8.15 in the test with COS Cell. Turning to `O=C(CC1CCN(C(=O)c2ccoc2)CC1)N1CCC([C@H]2c3ncc(Br)cc3CCc3cc(Cl)cc(Br)c32)CC1` [Compound 84.0-B], the pIC50 with Human tumor cells was at most 7.05; in the test with COS Cell, at most 8.15.

On to `O=C(CC1CCN(C(=O)N2CCOCC2)CC1)N1CCC([C@H]2c3ncc(Br)cc3CCc3cc(Cl)cc(Br)c32)CC1` [Compound 100.0-B], for which the pIC50 in the test with Human tumor cells was at most 7.05; with COS Cell it was at most 8.15.
